Results on 4 compounds are retold here after ChEMBL document CHEMBL1201862, “PubChem BioAssay data set” (2004).

Calls of active or inactive are those of the source. Where only a bound is given, the exact number is not on record here.

Experiment [1] addresses T1, Heat shock factor protein 1 (Mus musculus, UniProt P38532).
T1 sequence (P38532 whole entry): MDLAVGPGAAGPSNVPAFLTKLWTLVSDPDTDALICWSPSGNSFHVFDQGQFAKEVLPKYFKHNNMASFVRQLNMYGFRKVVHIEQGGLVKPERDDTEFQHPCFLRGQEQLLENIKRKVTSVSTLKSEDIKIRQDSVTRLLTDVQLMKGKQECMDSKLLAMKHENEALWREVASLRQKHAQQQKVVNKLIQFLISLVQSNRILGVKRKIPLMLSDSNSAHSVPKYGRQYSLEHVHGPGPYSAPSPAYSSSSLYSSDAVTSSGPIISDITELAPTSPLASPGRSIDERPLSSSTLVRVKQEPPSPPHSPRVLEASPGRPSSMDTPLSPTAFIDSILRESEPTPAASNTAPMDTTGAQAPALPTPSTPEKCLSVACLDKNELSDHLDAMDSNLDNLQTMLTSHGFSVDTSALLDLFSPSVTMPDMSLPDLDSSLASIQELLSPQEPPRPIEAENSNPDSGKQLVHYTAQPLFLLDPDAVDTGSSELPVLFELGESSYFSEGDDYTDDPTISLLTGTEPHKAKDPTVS
The experiment in a line: HSF1 potentiators in luciferase reporter cells, confirmation, cell-based, NIH3T3, luminescence, dose retest (AID 435004).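 Further: stress induced by proteasome inhibitor MG132 added 30 min after compound; luciferase reporter driven by HSF1 response element in NIH3T3 cells; actives raise luminescence as potentiators of the MG132 stress response.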 The format is functional. (Reporter assays use an easily measured gene product as a stand-in for the process of interest.)

Experiment [2] addresses Cytochrome P450 2D6 (Homo sapiens, UniProt P10635).
Experiment [3] is described as follows: cytotoxicity in KRAS-transformed pancreatic duct cells, primary screen, cell-based, fluorescence, HTS (AID 431).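 Further: cell line used: HPDE-C7K.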 The format is functional. Conditions: Homo sapiens.
The target of experiment [4] is T2, Tyrosine-protein phosphatase non-receptor type 7 (Homo sapiens, UniProt P35236).
T2 sequence (P35236 whole entry): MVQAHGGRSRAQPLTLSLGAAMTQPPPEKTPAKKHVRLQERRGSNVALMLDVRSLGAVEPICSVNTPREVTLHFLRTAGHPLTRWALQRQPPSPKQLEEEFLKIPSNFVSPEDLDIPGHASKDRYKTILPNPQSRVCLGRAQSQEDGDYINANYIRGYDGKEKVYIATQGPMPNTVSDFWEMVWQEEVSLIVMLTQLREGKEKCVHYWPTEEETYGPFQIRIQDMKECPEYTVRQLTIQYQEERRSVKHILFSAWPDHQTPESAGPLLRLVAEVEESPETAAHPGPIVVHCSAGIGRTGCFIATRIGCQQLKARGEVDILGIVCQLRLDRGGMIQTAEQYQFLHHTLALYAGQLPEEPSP
Description: inhibitors of human HePTP phosphatase, […], biochemical, absorbance, leukemia target (AID 521). It is filed as functional.

For experiment [5], the target named is T3, Estrogen receptor beta (Homo sapiens, UniProt Q92731). The experiment in a line: ERβ–SRC-3 coactivator interaction inhibitors, confirmation, orthogonal assay, biochemical, ELISA, streptavidin-HRP readout (AID 1060). A general note: In an ELISA, binding on a coated surface is turned into a signal by an enzyme label.
Experiment [6] can be described thus: cytotoxicity in HPDE-C7 cells, cell-based, fluorescence, HTS (AID 430). It is filed as functional. The note with it: Homo sapiens.
The target in experiment [7] is T3, Estrogen receptor beta.
Experiment [8] concerns the target T4, Endoribonuclease toxin MazF (Escherichia coli K-12, UniProt P0AE70).
T4 sequence (P0AE70 whole entry): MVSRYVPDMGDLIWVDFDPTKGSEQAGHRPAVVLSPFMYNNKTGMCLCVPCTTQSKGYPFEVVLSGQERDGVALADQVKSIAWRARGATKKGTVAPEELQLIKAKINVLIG
The experiment in a line: MazF toxin RNase activators, dose response, biochemical, fluorescence, single-stranded RNA substrate, uHTS hits (AID 588481). The format is functional.

Experiment [9] has as its target T4, Endoribonuclease toxin MazF. The experiment in a line: fluorescent RNA oligo signal without MazF, dose response, counter-screen for MazEF activator project, biochemical, fluorescence, single-stranded RNase substrate (AID 588502). It is filed as functional.
Experiment [10] can be described thus: Late stage counterscreen results from the probe development effort to identify activators of signal transducer and activator of transcription 1 (STAT1): luminescence-based cell-based dose response assay to identify cytotoxic compounds. It is filed as functional.
In experiment [11] the target is T5, Polyadenylate-binding protein 1 (Homo sapiens, UniProt P11940). Description: PABP1 MLLE–PAM2 binding inhibitor potency, dose response, biochemical, fluorescence polarization, FITC-PAM2 peptide (AID 602259). Conditions: read-out: IC50_Mean. The format is functional. (In general: In fluorescence polarisation assays a small probe gives low polarisation when free and higher when bound to something large.)

Experiment [12] concerns the target T1, Heat shock factor protein 1. The experiment in a line: inhibition of MG132-induced HSE-luciferase signal, confirmation, cell-based, NIH3T3, luminescence, dose retest (AID 2382).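 Further: NIH3T3 fibroblasts with HSF1-driven luciferase reporter stressed by proteasome inhibitor MG132; luminescence from HSF1-driven luciferase expression after 8 hours of MG132 stress.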 The format is functional.
In experiment [13] the target is Nonstructural protein 1 (Influenza A virus, UniProt Q194T2). It is filed as functional, Influenza A virus (A/California/07/2009(H1N1)).
The subject of experiment [14] is INS1. The experiment in a line: beta cell apoptosis inhibitors, cytokine rescue, dose response, luminescence, retest (AID 449756).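 Further: cell death triggered by IL-1 beta plus TNF-alpha plus IFN-gamma mixture; protective hits raise ATP signal compared with cytokine alone wells.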 The format is functional, cell-based. Conditions: Rattus norvegicus.
For experiment [15], the target named is T6, Mannose-6-phosphate isomerase (Homo sapiens, UniProt P34949).
T6 sequence (P34949 whole entry): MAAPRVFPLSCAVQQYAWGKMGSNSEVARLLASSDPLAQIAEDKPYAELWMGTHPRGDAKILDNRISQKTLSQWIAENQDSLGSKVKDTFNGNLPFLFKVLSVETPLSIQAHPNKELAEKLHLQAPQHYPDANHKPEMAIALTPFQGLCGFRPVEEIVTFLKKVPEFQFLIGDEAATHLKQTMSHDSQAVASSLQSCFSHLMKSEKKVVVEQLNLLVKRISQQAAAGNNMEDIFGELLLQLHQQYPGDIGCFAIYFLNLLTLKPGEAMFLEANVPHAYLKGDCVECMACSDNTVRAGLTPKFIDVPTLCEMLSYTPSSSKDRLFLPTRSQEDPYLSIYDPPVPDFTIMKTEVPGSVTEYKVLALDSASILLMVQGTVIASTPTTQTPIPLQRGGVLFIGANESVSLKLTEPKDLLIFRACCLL
Description: inhibitors of human PMI, primary screen, biochemical, fluorescence intensity, coupled assay (AID 1209).

Experiment [16] can be described thus: Shn3 3'UTR reporter inhibitors, dose response, cell-based, Clone20 osteoblasts, firefly luciferase, cherry-picked (AID 624132).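 Further: firefly luciferase luminescence from reporter carrying the Shn3 3'UTR in osteoblasts.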 The format is functional.
Experiment [17] has as its target T5, Polyadenylate-binding protein 1. Description: PABP1 MLLE–PAM2 interaction inhibitors, dose response, miRNA deadenylation inhibitor project, biochemical, fluorescence polarization, Cy5-PAM2 peptide, secondary (AID 602260). The format is functional. The note with it: read-out: IC50_Mean.
The nature of experiment [18]: HepG2 cell cytotoxicity, dose response, cytotoxicity control for Shn3 inhibitor project, CellTiter-Glo, cherry-picked (AID 624134). The format is functional, cell-based.
The nature of experiment [19]: control 3'UTR Renilla luciferase suppression, dose response, counter-screen for Shn3 inhibitor project, cell-based, Clone20-Shn3RL, cherry-picked (AID 624133). The format is functional.
Experiment [20] deals with T6, Mannose-6-phosphate isomerase. Description: human PMI inhibitors, high substrate, primary screen, biochemical, fluorescence intensity, high mannose 6-phosphate (AID 1220).
Experiment [21] concerns the target Peroxisome proliferator-activated receptor gamma/Nuclear receptor corepressor 2 (Homo sapiens, UniProt P37231+Q9Y618). The experiment in a line: Counterscreen for NR2E3 inverse agonists: TR-FRET-based biochemical high throughput dose response assay to identify inverse agonists of the interaction between peroxisome proliferator-activated receptor gamma (PPARg) and nuclear receptor co-repressor 2 (NCOR2). It is filed as functional.

For experiment [22], the target named is Photoreceptor-specific nuclear receptor (Homo sapiens, UniProt Q9Y5X4). The experiment in a line: NR2E3 inverse agonists, dose response, biochemical, TR-FRET (AID 463256). It is filed as functional.
For experiment [23], the target named is Cytochrome P450 3A4 (Homo sapiens, UniProt P08684).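 Further: CYP3A4 tested as one member of a cytochrome P450 panel screen.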
For experiment [24], the target named is T7, Cytochrome P450 1A2 (Homo sapiens, UniProt P05177).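 Further: PubChem cytochrome P450 panel assay, CYP1A2 panel member.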
T7 sequence (P05177 whole entry): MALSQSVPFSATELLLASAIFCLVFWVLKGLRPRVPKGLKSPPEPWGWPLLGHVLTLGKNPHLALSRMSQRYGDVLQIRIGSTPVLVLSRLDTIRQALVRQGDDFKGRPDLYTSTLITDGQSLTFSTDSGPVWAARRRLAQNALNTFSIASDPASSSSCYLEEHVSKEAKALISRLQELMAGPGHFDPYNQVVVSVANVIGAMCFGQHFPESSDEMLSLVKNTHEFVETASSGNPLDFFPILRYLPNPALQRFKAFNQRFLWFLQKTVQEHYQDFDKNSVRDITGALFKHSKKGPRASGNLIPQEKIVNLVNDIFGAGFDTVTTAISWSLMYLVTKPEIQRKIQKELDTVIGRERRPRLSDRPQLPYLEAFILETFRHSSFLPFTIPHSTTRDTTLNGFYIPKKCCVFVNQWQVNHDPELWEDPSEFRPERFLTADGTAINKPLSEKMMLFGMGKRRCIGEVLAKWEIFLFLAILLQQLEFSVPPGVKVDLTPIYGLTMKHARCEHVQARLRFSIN

T3 sequence (Q92731 whole entry): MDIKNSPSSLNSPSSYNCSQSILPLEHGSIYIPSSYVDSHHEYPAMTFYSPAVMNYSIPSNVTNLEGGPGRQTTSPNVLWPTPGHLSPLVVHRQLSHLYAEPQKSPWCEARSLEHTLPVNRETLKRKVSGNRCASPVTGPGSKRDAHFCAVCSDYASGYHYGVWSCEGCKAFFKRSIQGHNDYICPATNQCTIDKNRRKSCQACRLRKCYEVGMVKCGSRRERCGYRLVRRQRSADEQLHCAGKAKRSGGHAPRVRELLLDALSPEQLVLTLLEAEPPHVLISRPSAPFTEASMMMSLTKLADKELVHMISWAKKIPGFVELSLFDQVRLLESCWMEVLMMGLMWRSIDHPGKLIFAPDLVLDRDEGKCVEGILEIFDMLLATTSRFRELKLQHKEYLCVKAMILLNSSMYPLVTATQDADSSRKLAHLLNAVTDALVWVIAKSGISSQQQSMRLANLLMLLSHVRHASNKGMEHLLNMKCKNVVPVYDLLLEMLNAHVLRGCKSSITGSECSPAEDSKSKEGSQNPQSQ
T5 sequence (P11940 whole entry): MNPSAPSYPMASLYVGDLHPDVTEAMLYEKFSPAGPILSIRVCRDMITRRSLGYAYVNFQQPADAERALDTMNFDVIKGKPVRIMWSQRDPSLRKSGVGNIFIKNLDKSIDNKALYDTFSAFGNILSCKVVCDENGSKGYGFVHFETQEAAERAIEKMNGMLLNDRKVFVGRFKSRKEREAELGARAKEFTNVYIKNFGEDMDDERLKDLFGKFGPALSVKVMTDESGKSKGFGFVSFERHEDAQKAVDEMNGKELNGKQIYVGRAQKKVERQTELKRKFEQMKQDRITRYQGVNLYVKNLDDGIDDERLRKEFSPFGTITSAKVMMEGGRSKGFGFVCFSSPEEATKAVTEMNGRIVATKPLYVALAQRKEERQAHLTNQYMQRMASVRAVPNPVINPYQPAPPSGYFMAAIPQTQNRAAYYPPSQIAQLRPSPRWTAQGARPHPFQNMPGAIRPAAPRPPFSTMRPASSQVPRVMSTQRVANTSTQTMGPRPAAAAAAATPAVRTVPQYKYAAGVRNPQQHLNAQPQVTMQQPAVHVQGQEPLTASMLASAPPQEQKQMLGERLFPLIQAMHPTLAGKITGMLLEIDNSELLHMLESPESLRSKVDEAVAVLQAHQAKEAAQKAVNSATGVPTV
Chain of Cytochrome P450 3A4 (P08684 whole entry): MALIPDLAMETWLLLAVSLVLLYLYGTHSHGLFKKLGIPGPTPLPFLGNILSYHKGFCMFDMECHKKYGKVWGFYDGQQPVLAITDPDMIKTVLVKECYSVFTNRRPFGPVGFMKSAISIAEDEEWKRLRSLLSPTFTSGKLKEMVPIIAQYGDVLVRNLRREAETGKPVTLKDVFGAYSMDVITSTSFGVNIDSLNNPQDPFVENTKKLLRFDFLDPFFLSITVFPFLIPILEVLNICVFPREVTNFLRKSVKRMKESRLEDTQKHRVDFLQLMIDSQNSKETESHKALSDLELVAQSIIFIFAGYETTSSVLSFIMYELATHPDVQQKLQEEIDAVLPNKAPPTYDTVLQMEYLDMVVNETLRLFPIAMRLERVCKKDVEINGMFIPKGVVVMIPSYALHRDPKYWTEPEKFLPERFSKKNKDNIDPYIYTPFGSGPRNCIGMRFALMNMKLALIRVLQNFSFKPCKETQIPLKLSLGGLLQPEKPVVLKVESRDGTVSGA
Chain of Cytochrome P450 2D6 (P10635 whole entry): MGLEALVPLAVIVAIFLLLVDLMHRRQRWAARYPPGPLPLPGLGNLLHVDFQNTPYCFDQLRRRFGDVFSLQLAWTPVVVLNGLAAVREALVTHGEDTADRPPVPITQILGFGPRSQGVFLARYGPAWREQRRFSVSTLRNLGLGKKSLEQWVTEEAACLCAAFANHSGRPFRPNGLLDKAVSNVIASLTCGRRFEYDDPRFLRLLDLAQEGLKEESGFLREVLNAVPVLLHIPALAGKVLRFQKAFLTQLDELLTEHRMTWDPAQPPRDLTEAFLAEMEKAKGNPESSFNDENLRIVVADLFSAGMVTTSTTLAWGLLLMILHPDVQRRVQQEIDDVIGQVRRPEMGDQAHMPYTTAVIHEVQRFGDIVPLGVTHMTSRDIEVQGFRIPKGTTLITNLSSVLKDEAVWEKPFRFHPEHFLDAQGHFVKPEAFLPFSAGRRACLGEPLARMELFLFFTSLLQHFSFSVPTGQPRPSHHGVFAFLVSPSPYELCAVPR
Chain of Photoreceptor-specific nuclear receptor (Q9Y5X4 whole entry): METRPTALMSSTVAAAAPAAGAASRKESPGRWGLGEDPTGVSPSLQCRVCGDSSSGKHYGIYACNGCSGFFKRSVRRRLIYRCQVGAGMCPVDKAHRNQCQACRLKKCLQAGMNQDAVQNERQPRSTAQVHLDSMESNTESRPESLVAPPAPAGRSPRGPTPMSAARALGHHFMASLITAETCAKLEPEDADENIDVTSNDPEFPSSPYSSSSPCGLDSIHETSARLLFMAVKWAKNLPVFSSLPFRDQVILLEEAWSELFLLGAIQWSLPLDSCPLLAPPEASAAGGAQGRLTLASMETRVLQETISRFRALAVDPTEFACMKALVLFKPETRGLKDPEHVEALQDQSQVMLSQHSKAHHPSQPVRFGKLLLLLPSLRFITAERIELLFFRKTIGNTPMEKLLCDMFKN
Chain of Nonstructural protein 1 (Q194T2 whole entry): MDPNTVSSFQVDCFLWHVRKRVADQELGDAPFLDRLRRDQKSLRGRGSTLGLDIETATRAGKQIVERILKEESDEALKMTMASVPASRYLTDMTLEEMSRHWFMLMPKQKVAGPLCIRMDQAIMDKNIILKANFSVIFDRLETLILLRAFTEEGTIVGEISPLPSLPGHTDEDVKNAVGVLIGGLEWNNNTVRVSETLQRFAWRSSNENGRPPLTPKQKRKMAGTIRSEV

As a reminder, the EC50 is the concentration needed to bring the measured effect to its halfway point. By AC50 is commonly meant the midpoint of the concentration-response curve, whichever way the signal moves. `CCn1c(SCC(=O)N2CCOCC2)nc2oc3c(Cl)cc(Cl)cc3c(=O)c2c1=O`: the 50% effective concentration (EC50) in [1] is 16.1 µM (inconclusive); in experiment [3] it was > 20 µM (not active); in experiment [6], > 20 µM (not active). Further, in experiment [2], the AC50 was 15.8 µM (inconclusive). Moreover, the figures for the IC50 in [4], in experiment [5] and in experiment [7] were > 100 µM (not active), 13.3 µM (not active) and 17.2 µM (active), respectively.
Consider `CCN(CC)c1ccc2cc(C(=O)Nc3ccccn3)c(=O)oc2c1`, for which the EC50 in [8] and in [9] was > 99 µM (inactive) throughout. The IC50 in experiment [10] is given as > 55.7 µM (not active).
Consider `Oc1ccc(CN2CCCc3ccccc32)c2cccnc12`, for which the IC50 in experiment [11] is > 66 µM (inactive); in [13], 32.2 µM (active); in [15], > 50 µM (not active); in experiment [17], > 66 µM (inactive); in experiment [20], > 50 µM (not active). For the same compound, the 50% effective concentration (EC50) in experiment [12] is 29 µM (active). Also, the half-maximal activity concentration (AC50) in experiment [14] is 11.8 µM (active); in [16], 5.4 µM (active); in experiment [18] it was 8.25 µM (active); in experiment [19], 17.3 µM (active).
Turning to `COc1ccc(N2C(=O)c3ccccc3NC2c2ccc(OC)c(CSc3ccccn3)c2)cc1` (centres undefined), the IC50 in experiment [21] is 7.42 µM (active); in experiment [22], 5.92 µM (active). The AC50 in experiment [23] is 1 µM (inconclusive); in [24], 15.8 µM (inconclusive).
